The record followed here is EP2140864A2 (H. Lundbeck A/S, priority 2001, dated 2002).

Chain of 5HT transporter (P31652 whole entry): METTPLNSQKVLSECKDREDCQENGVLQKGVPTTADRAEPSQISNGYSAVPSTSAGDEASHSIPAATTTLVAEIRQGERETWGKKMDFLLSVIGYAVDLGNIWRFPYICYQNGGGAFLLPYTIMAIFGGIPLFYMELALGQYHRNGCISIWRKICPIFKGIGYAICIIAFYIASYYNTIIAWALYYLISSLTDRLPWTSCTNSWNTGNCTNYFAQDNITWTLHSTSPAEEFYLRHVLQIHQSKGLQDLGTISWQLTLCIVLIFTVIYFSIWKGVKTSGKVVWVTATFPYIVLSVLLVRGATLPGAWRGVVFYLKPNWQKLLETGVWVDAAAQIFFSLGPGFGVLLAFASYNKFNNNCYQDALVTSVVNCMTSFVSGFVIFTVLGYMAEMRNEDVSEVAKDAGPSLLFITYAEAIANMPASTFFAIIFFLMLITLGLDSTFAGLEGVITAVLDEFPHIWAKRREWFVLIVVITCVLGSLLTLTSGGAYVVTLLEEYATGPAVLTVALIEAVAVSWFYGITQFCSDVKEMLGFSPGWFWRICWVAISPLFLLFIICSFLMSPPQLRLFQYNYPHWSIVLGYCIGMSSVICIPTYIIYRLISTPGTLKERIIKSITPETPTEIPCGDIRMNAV
T9 sequence (P34969 1-445 isoform P34969-2): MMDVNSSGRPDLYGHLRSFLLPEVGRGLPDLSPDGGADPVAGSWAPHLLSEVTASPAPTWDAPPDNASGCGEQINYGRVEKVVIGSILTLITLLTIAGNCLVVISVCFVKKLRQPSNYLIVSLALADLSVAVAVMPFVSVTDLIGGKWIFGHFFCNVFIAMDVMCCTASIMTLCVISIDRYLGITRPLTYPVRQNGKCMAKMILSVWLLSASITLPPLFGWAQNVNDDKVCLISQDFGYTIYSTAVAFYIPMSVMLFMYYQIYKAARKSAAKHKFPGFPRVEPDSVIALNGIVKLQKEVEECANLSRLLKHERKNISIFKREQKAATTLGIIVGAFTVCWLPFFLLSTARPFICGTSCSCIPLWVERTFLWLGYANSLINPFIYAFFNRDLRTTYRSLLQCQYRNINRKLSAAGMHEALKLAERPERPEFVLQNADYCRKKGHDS
T1 sequence (Q13639 whole entry): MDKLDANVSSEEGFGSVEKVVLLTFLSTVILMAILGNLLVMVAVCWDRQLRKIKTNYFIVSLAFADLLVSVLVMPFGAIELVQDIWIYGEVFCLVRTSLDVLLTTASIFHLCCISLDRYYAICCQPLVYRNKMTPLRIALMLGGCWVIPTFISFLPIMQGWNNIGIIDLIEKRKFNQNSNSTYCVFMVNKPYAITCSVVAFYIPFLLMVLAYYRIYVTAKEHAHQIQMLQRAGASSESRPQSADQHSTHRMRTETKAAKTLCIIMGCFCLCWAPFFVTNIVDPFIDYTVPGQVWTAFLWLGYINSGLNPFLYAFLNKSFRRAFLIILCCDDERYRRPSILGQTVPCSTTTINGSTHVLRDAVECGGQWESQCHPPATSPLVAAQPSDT
Chain of DA transporter (P23977 whole entry): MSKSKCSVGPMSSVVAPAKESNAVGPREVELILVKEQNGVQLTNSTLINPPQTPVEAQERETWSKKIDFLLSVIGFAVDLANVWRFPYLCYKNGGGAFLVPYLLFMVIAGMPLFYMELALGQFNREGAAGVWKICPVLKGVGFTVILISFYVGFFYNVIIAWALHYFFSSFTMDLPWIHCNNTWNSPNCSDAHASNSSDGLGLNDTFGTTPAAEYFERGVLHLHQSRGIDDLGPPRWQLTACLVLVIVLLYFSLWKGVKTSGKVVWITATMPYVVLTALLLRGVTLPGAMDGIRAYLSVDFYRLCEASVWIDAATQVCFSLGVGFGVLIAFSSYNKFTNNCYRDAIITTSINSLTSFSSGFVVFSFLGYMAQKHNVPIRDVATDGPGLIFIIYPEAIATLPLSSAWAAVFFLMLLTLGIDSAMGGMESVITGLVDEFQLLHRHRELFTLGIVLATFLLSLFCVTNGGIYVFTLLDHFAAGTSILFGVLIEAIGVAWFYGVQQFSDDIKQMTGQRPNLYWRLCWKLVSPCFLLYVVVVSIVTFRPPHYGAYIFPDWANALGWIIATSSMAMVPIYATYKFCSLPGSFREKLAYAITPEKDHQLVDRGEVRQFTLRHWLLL

One test addresses T1, human 5HT4 receptor (Homo sapiens, UniProt Q13639).
T1 construct: expressed in transfected cells
Kind of test: Radioligand binding, 5-HT4 receptor. The conditions noted are these: Table 7; read-out: h5HT4 Ki. How it is done: (§1) Other 5-HT Receptors: Other serotonin receptor binding assays were performed according to published methods: rat 5HT2C receptor (Julius et al., 1988); and 5-HT6 (Monsma, et al., 1993). The binding assays using the 5-HT4 receptor were performed according to the procedures described in U.S. Patent No. 5,766,879, the disclosure of which is hereby incorporated by reference in its entirety into this application.
(§2) Binding data were analyzed using nonlinear regression and statistical techniques available in the GraphPAD Prism package (San Diego, CA). Enzymatic assay data were derived from a standard curve of reference compound data.
As for `O=C1C(=Nc2ccc(C(F)(F)F)cc2)c2ccccc2N1c1ccccc1` [Example 95, 1-PHENYL-3-[[4-(TRIFLUOROMETHYL)PHENYL]IMINO]-1,3-DIHYDRO-2H-INDOL-2-ONE], the inhibition constant (Ki) turned out to be 3.03 µM.

Staying with this test, now noted: Table 8; Ki h5HT4 divided by Ki hGAL3.
`O=C1C(=Nc2ccc(C(F)(F)F)cc2)c2ccccc2N1c1ccccc1` [Example 95, 1-PHENYL-3-[[4-(TRIFLUOROMETHYL)PHENYL]IMINO]-1,3-DIHYDRO-2H-INDOL-2-ONE]: the “selectivity ratio h5HT4” value is listed as over 100.

In another test the target is T2, dopamine D5 receptor (Homo sapiens, UniProt P21918).
T2 construct: expressed in transfected cells
T2 sequence (P21918 whole entry): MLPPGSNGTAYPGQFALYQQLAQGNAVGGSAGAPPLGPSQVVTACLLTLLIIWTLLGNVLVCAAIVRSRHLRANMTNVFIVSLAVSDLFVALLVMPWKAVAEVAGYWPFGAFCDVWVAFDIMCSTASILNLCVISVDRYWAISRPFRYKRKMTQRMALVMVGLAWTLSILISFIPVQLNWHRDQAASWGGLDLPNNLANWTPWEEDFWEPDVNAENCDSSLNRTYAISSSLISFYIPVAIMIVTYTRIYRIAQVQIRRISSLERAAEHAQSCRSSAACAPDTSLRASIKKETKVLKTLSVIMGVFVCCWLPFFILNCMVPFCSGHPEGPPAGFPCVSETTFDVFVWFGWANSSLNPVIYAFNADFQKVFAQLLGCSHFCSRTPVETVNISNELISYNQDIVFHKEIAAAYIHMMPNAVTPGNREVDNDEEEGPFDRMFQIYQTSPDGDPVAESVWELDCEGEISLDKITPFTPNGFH
Kind of test: Radioligand binding, dopamine D5 receptor. Conditions: Table 9; read-out: hD5 Ki.
Description: (§3) Other receptors: Cell membranes expressing human dopamine D1, D2, D4 and rat D3 receptors were purchased through BioSignal, Inc. (Montreal, Canada). Binding assays using the histamine H1 receptor; dopamine receptors; and α1A, α1E, and α2 adrenergic receptors may be carried out according to the procedures described in U.S. Patent No. 5,780,485, the disclosure of which is hereby incorporated by reference in its entirety into this application. Binding assays using the dopamine D5 receptor may be carried out according to the procedures described in U.S. Patent No. 5,882,855, the disclosure of which is hereby incorporated by reference in its entirety into this application. Binding assays for the human α1D adrenergic receptor may be carried out according to the procedures described in U.S. Patent No. 6,156,518, the disclosure of which is hereby incorporated by reference in its entirety into this application.
as §2
With `O=C1C(=Nc2ccc(C(F)(F)F)cc2)c2ccccc2N1c1ccccc1` [Example 95, 1-PHENYL-3-[[4-(TRIFLUOROMETHYL)PHENYL]IMINO]-1,3-DIHYDRO-2H-INDOL-2-ONE], the inhibition constant Ki worked out at 2.59 µM.

The test is the same for the next values; noted with them: Table 10; Ki hD5 divided by Ki hGAL3.
For the compound `O=C1C(=Nc2ccc(C(F)(F)F)cc2)c2ccccc2N1c1ccccc1` [Example 95, 1-PHENYL-3-[[4-(TRIFLUOROMETHYL)PHENYL]IMINO]-1,3-DIHYDRO-2H-INDOL-2-ONE], the “selectivity ratio hD5” value is given as over 30.

For another test, the target named is T3, human α1B adrenoceptor (Homo sapiens, UniProt P35368).
T3 construct: expressed in transfected cells
T3 sequence (P35368 1-520): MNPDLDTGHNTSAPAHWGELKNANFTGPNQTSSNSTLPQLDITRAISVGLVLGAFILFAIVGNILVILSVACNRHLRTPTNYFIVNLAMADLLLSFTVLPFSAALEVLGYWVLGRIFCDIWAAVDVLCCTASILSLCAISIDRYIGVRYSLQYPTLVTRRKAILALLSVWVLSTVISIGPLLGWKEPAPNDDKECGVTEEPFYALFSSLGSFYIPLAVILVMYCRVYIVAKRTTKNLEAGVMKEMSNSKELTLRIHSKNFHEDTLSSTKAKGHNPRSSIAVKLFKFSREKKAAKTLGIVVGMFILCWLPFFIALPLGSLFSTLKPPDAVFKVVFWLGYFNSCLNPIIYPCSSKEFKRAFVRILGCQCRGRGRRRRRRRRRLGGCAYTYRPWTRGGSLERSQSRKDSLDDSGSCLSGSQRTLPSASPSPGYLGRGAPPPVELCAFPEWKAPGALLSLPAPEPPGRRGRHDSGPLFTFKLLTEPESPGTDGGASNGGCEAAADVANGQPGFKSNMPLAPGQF
Description: Radioligand binding, α1B adrenergic receptor. The conditions noted are these: Table 9; read-out: hα1B Ki.
With `O=C1C(=Nc2ccc(C(F)(F)F)cc2)c2ccccc2N1c1ccccc1` [Example 95, 1-PHENYL-3-[[4-(TRIFLUOROMETHYL)PHENYL]IMINO]-1,3-DIHYDRO-2H-INDOL-2-ONE], the Ki came out at 32.5 µM.

Still in this test, the particulars now being: Table 10; Ki hα1B divided by Ki hGAL3.
For `O=C1C(=Nc2ccc(C(F)(F)F)cc2)c2ccccc2N1c1ccccc1` [Example 95, 1-PHENYL-3-[[4-(TRIFLUOROMETHYL)PHENYL]IMINO]-1,3-DIHYDRO-2H-INDOL-2-ONE], the “selectivity ratio hα1B” value is recorded as over 100.

The target in the next test is T4, human 5HT1D (Homo sapiens, UniProt P28221).
T4 construct: expressed in transfected cells
T4 sequence (P28221 whole entry): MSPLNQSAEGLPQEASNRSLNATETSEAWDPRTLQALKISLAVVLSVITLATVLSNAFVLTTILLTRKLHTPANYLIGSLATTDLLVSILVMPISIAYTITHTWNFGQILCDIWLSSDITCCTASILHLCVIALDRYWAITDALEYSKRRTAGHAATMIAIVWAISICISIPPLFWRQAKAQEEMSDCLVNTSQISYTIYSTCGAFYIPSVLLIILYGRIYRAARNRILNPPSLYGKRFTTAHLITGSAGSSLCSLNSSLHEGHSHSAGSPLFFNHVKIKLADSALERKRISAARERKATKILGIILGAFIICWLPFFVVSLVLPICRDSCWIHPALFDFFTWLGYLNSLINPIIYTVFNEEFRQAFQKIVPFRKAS
Kind of test: Radioligand binding, 5HT1D receptor ([3H]-serotonin). Conditions: Table 7; read-out: h5HT1D Ki. How it is done: (§4) Human 5HT1B, 5HT1D, 5HT1E, 5HT1F, and 5HT7 Receptors: The cell lysates of LM(tk-) clonal cell line stably transfected with the genes encoding each of these 5HT receptor-subtypes were prepared as described above. Cell membranes were suspended in 50mM Tris-HCl buffer (pH 7.4 at 37°C) containing 10 mM MgCl2, 0.2 mM EDTA, 10 µM pargyline, and 0.1% ascorbate. […] Nonspecific binding was determined in the presence of 10 µM serotonin. The bound radioligand was separated by filtration through GF/B filters using a cell harvester.
as §2
As to `O=C1C(=Nc2ccc(C(F)(F)F)cc2)c2ccccc2N1c1ccccc1` [Example 95, 1-PHENYL-3-[[4-(TRIFLUOROMETHYL)PHENYL]IMINO]-1,3-DIHYDRO-2H-INDOL-2-ONE], the inhibition constant Ki came out at 16 µM.

Still in this test, the particulars now being: Table 8; Ki h5HT1D divided by Ki hGAL3.
Take `O=C1C(=Nc2ccc(C(F)(F)F)cc2)c2ccccc2N1c1ccccc1` [Example 95, 1-PHENYL-3-[[4-(TRIFLUOROMETHYL)PHENYL]IMINO]-1,3-DIHYDRO-2H-INDOL-2-ONE]: the “selectivity ratio h5HT1D” value is over 100.

In another test the target is T5, human 5HT1E (Homo sapiens, UniProt P28566).
T5 construct: expressed in transfected cells
T5 sequence (P28566 whole entry): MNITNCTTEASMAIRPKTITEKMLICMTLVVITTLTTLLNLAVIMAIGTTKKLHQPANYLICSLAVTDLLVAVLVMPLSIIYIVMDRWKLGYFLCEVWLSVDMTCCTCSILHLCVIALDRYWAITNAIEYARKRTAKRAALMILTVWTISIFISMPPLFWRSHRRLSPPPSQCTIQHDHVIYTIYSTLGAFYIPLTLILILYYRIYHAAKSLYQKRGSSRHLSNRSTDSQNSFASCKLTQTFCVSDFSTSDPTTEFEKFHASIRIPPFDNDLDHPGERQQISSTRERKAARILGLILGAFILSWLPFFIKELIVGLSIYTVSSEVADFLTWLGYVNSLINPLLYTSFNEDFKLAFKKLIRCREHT
Description: Radioligand binding, 5HT1E receptor ([3H]-serotonin). The conditions noted are these: Table 7; read-out: h5HT1E Ki. The protocol:
as §4, §2
Regarding `O=C1C(=Nc2ccc(C(F)(F)F)cc2)c2ccccc2N1c1ccccc1` [Example 95, 1-PHENYL-3-[[4-(TRIFLUOROMETHYL)PHENYL]IMINO]-1,3-DIHYDRO-2H-INDOL-2-ONE], the Ki amounted to 27.2 µM.

Staying with this test, now noted: Table 8; Ki h5HT1E divided by Ki hGAL3.
For the compound `O=C1C(=Nc2ccc(C(F)(F)F)cc2)c2ccccc2N1c1ccccc1` [Example 95, 1-PHENYL-3-[[4-(TRIFLUOROMETHYL)PHENYL]IMINO]-1,3-DIHYDRO-2H-INDOL-2-ONE], the “selectivity ratio h5HT1E” value is given as over 100.

Another test deals with T6, human α2B adrenoceptor (Homo sapiens, UniProt P18089).
T6 construct: expressed in transfected cells
T6 sequence (P18089 1-450): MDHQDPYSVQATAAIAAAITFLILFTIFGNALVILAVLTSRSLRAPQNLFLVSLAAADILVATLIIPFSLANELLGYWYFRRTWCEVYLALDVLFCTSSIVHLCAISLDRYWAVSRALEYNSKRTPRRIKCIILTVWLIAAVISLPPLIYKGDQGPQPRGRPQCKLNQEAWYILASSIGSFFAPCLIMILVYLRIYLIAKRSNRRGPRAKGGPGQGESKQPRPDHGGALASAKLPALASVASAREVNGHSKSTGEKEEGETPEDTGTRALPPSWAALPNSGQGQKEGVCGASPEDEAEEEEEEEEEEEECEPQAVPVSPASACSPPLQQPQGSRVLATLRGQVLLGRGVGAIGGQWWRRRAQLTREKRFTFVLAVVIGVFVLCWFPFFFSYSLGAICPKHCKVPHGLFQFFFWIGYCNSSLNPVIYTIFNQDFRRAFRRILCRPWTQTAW
Description: Radioligand binding, α2B adrenergic receptor. Conditions: Table 9; read-out: hα2B Ki.
Description: as §3, §2
As for `O=C1C(=Nc2ccc(C(F)(F)F)cc2)c2ccccc2N1c1ccccc1` [Example 95, 1-PHENYL-3-[[4-(TRIFLUOROMETHYL)PHENYL]IMINO]-1,3-DIHYDRO-2H-INDOL-2-ONE], the Ki is over 50 µM.

Staying with this test, now noted: Table 10; Ki hα2B divided by Ki hGAL3.
Turning to `O=C1C(=Nc2ccc(C(F)(F)F)cc2)c2ccccc2N1c1ccccc1` [Example 95, 1-PHENYL-3-[[4-(TRIFLUOROMETHYL)PHENYL]IMINO]-1,3-DIHYDRO-2H-INDOL-2-ONE], the “selectivity ratio hα2B” value is over 100.

In a further test the target is T7, human 5HT6 (Homo sapiens, UniProt P50406).
T7 construct: expressed in transfected cells
T7 sequence (P50406 whole entry): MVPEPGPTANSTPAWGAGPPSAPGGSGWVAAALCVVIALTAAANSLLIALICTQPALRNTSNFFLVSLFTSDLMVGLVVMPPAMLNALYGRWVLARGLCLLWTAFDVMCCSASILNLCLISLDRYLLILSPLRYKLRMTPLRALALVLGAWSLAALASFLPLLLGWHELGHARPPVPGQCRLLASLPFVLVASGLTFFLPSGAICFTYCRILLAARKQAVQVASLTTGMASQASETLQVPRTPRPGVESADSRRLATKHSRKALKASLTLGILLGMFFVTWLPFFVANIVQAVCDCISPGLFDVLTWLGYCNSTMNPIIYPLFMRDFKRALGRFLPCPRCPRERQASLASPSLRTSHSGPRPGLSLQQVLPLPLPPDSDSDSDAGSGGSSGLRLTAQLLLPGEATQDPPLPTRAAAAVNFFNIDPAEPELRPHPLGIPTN
Kind of test: Radioligand binding, 5-HT6 receptor. Conditions: Table 7; read-out: h5HT6 Ki. The protocol: as §1, §2
For `O=C1C(=Nc2ccc(C(F)(F)F)cc2)c2ccccc2N1c1ccccc1` [Example 95, 1-PHENYL-3-[[4-(TRIFLUOROMETHYL)PHENYL]IMINO]-1,3-DIHYDRO-2H-INDOL-2-ONE], the inhibition constant Ki was 21.5 µM.

The same test, now with this note: Table 8; Ki h5HT6 divided by Ki hGAL3.
In the case of `O=C1C(=Nc2ccc(C(F)(F)F)cc2)c2ccccc2N1c1ccccc1` [Example 95, 1-PHENYL-3-[[4-(TRIFLUOROMETHYL)PHENYL]IMINO]-1,3-DIHYDRO-2H-INDOL-2-ONE], the “selectivity ratio h5HT6” value is given as over 100.

The target in a further test is DA transporter (Rattus norvegicus, UniProt P23977). Kind of test: Binding at native DA transporter. The conditions noted are these: Table 7; native transporter, head prints r (rat); read-out: rDA Uptk Ki. How it is done:
(§5) The binding properties of the compounds of the present invention were evaluated at one or more cloned receptors or native, tissue-derived transporters, using protocols described below.
(§6) The methods to determine binding affinity at native transporters are described in the following publications: 5HT transporter and NE transporter (Owens et al., 1997), and DA transporter (Javitch et al, 1984).
as §2
As for `O=C1C(=Nc2ccc(C(F)(F)F)cc2)c2ccccc2N1c1ccccc1` [Example 95, 1-PHENYL-3-[[4-(TRIFLUOROMETHYL)PHENYL]IMINO]-1,3-DIHYDRO-2H-INDOL-2-ONE], the inhibitory constant (Ki) amounted to 12 µM.

Staying with this test, now noted: Table 8; Ki rDA Uptk divided by Ki hGAL3.
As for `O=C1C(=Nc2ccc(C(F)(F)F)cc2)c2ccccc2N1c1ccccc1` [Example 95, 1-PHENYL-3-[[4-(TRIFLUOROMETHYL)PHENYL]IMINO]-1,3-DIHYDRO-2H-INDOL-2-ONE], the “selectivity ratio rDA Uptk” value is over 100.

The target in another test is T8, human dopamine D1 (Homo sapiens, UniProt P21728).
T8 construct: purchased BioSignal, Inc. (Montreal, Canada); host or cells: membranes of cells expressing the receptor
T8 sequence (P21728 whole entry): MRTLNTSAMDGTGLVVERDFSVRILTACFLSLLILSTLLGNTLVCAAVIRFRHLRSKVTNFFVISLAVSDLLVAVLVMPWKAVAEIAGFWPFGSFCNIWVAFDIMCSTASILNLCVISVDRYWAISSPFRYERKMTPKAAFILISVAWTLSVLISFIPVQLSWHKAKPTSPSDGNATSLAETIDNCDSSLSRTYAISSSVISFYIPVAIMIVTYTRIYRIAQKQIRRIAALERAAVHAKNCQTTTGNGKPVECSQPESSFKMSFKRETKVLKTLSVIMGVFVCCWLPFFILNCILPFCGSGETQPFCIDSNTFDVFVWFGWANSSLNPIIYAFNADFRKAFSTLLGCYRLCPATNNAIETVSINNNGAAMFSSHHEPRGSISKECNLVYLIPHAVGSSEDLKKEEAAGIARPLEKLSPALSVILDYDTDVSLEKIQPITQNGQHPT
Kind of test: Radioligand binding, dopamine D1 receptor. The conditions noted are these: Table 9; read-out: hD1 Ki.
Description: as §3, §2
Turning to `O=C1C(=Nc2ccc(C(F)(F)F)cc2)c2ccccc2N1c1ccccc1` [Example 95, 1-PHENYL-3-[[4-(TRIFLUOROMETHYL)PHENYL]IMINO]-1,3-DIHYDRO-2H-INDOL-2-ONE], the Ki turned out to be 4.39 µM.

Still in this test, the particulars now being: Table 10; Ki hD1 divided by Ki hGAL3.
As to `O=C1C(=Nc2ccc(C(F)(F)F)cc2)c2ccccc2N1c1ccccc1` [Example 95, 1-PHENYL-3-[[4-(TRIFLUOROMETHYL)PHENYL]IMINO]-1,3-DIHYDRO-2H-INDOL-2-ONE], the “selectivity ratio hD1” value is given as over 100.

A further test has as its target 5HT transporter (Rattus norvegicus, UniProt P31652). Description: Binding at native 5HT transporter. The conditions noted are these: Table 7; native transporter, head prints r (rat); read-out: r5HT Uptk Ki. How it is done:
as §5, §6, §2
Turning to `O=C1C(=Nc2ccc(C(F)(F)F)cc2)c2ccccc2N1c1ccccc1` [Example 95, 1-PHENYL-3-[[4-(TRIFLUOROMETHYL)PHENYL]IMINO]-1,3-DIHYDRO-2H-INDOL-2-ONE], the inhibition constant Ki is over 50 µM.

Still in this test, the particulars now being: Table 8; Ki r5HT Uptk divided by Ki hGAL3.
In the case of `O=C1C(=Nc2ccc(C(F)(F)F)cc2)c2ccccc2N1c1ccccc1` [Example 95, 1-PHENYL-3-[[4-(TRIFLUOROMETHYL)PHENYL]IMINO]-1,3-DIHYDRO-2H-INDOL-2-ONE], the “selectivity ratio r5HT Uptk” value was over 100.

A further test concerns the target T9, human 5HT7 (Homo sapiens, UniProt P34969).
T9 construct: expressed in transfected cells
Kind of test: Radioligand binding, 5HT7 receptor ([3H]-serotonin). The conditions noted are these: Table 7; read-out: h5HT7 Ki. How it is done: as §4, §2
For `O=C1C(=Nc2ccc(C(F)(F)F)cc2)c2ccccc2N1c1ccccc1` [Example 95, 1-PHENYL-3-[[4-(TRIFLUOROMETHYL)PHENYL]IMINO]-1,3-DIHYDRO-2H-INDOL-2-ONE], the Ki came to 11.6 µM.

Still in this test, the particulars now being: Table 8; Ki h5HT7 divided by Ki hGAL3.
Regarding `O=C1C(=Nc2ccc(C(F)(F)F)cc2)c2ccccc2N1c1ccccc1` [Example 95, 1-PHENYL-3-[[4-(TRIFLUOROMETHYL)PHENYL]IMINO]-1,3-DIHYDRO-2H-INDOL-2-ONE], the “selectivity ratio h5HT7” value is over 100.
